Legend:
Test in all cases: relative viability (nuclei count vs DMSO), 5 days (fraction); higher = more cells survive
[1] = compound: C=C(c1ccc(C(=O)O)cc1)c1cc2c(cc1C)C(C)(C)CCC2(C)C [Bexarotene] + CCNC(=O)c1noc(-c2cc(C(C)C)c(O)cc2O)c1-c1ccc(CN2CCOCC2)cc1 [Luminespib] (partner 0.01 µM)
Method in brief: (§1)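 The day after seeding in 1536-well plates, lung cancer cell lines were treated by pin tool with a single drug, or with a fixed anchor-drug dose together with five library-drug doses (not always all listed) in √10 steps. After 5 days, a combined fix-and-stain solution (final 0.05% Triton X-100, 1% formaldehyde, 1 ug/ml Hoechst) was added. Nuclei counted on 4× images gave relative viability as treated counts over vehicle counts, reported as the median of duplicate plates.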

[2] = compound: C=C(c1ccc(C(=O)O)cc1)c1cc2c(cc1C)C(C)(C)CCC2(C)C [Bexarotene] + COc1cc2c(Oc3ccc(NC(=O)C4(C(=O)Nc5ccc(F)cc5)CC4)cc3F)ccnc2cc1OCCCN1CCOCC1 [Foretinib] (partner 0.25 µM)
Method in brief: as §1

[3] = compound: C=C(c1ccc(C(=O)O)cc1)c1cc2c(cc1C)C(C)(C)CCC2(C)C [Bexarotene] + Cc1cc(Nc2cc(N3CCN(C)CC3)nc(Sc3ccc(NC(=O)C4CC4)cc3)n2)n[nH]1 [Tozasertib] (partner 0.1 µM)
Method in brief: as §1

[4] = compound: C=C(c1ccc(C(=O)O)cc1)c1cc2c(cc1C)C(C)(C)CCC2(C)C [Bexarotene] + NC(=O)Nc1cc(-c2cccc(F)c2)sc1C(=O)N[C@H]1CCCNC1 [AZD7762] (partner 0.2 µM)
Method in brief: as §1

Cell Line	relative viability ([1]; first compound 0.08 µM)	relative viability ([1]; first compound 0.253 µM)	relative viability ([1]; first compound 0.8 µM)	relative viability ([1]; first compound 2.53 µM)	relative viability ([1]; first compound 8 µM)	relative viability ([2]; first compound 0.08 µM)	relative viability ([2]; first compound 0.253 µM)	relative viability ([2]; first compound 0.8 µM)	relative viability ([2]; first compound 2.53 µM)	relative viability ([2]; first compound 8 µM)	relative viability ([3]; first compound 0.08 µM)	relative viability ([3]; first compound 0.253 µM)	relative viability ([3]; first compound 0.8 µM)	relative viability ([3]; first compound 2.53 µM)	relative viability ([3]; first compound 8 µM)	relative viability ([4]; first compound 0.08 µM)	relative viability ([4]; first compound 0.253 µM)	relative viability ([4]; first compound 0.8 µM)	relative viability ([4]; first compound 2.53 µM)	relative viability ([4]; first compound 8 µM)
201T	1	1.04	1.01	0.985	0.881	1.17	1.25	1.17	1.06	0.976	0.926	0.86	0.891	0.92	0.808	0.796	0.612	0.714	0.591	0.514
A549	–	–	–	–	–	1.01	0.875	0.856	0.864	0.718	–	–	–	–	–	–	–	–	–	–
A-427	1.05	0.94	0.999	1.1	0.948	1.14	0.932	0.941	1.05	0.868	0.203	0.202	0.193	0.202	0.183	0.79	0.71	0.736	0.691	0.688
ABC-1	0.591	0.654	0.597	0.576	0.677	0.991	1.19	1.13	0.855	1.08	0.19	0.175	0.21	0.197	0.196	0.729	0.797	0.747	0.667	0.876
BEN	0.336	0.247	0.409	0.078	0.252	0.802	0.387	0.567	0.318	0.674	0.462	0.475	0.499	0.444	0.493	0.759	0.585	0.613	0.612	0.695
CAL-12T	0.218	0.224	0.419	0.322	0.297	1.31	1.1	1.19	1.03	0.977	0.264	0.309	0.227	0.276	0.244	0.649	0.549	0.603	0.427	0.513
COR-L23	0.795	0.786	0.565	0.629	0.618	0.999	1.06	0.908	0.952	1.05	0.242	0.238	0.238	0.204	0.219	–	–	–	–	–
COR-L 105	0.851	0.764	0.812	0.698	0.866	1.07	1.05	1.07	1.12	0.833	0.395	0.328	0.324	0.442	0.388	–	–	–	–	–
Calu-6	–	–	–	–	–	0.973	0.901	0.752	0.886	1.02	–	–	–	–	–	–	–	–	–	–
ChaGo-K-1	0.54	0.604	0.6	0.686	0.693	1.07	0.963	0.976	0.936	0.919	0.259	0.234	0.264	0.223	0.223	0.934	0.828	0.813	0.832	0.873
EBC-1	–	–	–	–	–	0.111	0.124	0.101	0.129	0.112	–	–	–	–	–	–	–	–	–	–
EKVX	0.918	0.837	0.922	0.787	0.851	0.666	0.915	0.925	0.822	0.711	0.361	0.42	0.389	0.46	0.325	0.804	0.848	0.822	0.828	0.634
EMC-BAC-2	1.28	1.23	1.23	1.12	1.11	0.912	1.09	0.998	0.964	0.993	0.311	0.315	0.274	0.277	0.283	1.17	1.09	1.06	–	1.08
EPLC-272H	0.304	0.332	0.252	0.303	0.258	0.666	0.555	0.75	0.588	0.737	0.278	0.262	0.307	0.286	0.341	0.199	0.259	0.517	0.208	0.271
H3255	0.869	0.935	1.01	0.785	0.954	1.01	0.821	0.906	0.779	0.748	0.696	0.612	0.578	0.731	0.618	0.948	0.941	0.975	0.851	1.05
HARA	0.722	0.769	0.658	0.767	0.709	0.759	0.472	0.85	0.941	0.701	0.0906	0.0857	0.156	0.0749	0.0939	0.336	0.272	0.412	0.303	0.262

— the supplement of paper PMC10307832
